Where “and” joins values, the source holds several entries; their conditions need not be identical. Identical values can stand only once. Inconclusive results and toxic doses are left out.
Tested on: L1210 leukemia ip in BDF1 mice, survival T/C
Test: NCI In Vivo Anticancer Drug Screen. Data for tumor model L1210 Leukemia (intraperitoneal) in B6D2F1 (BDF1) mice
Settings: endpoint: mean survival time, higher = longer survival
Outline: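 Antitumor effect is assessed in tumor-bearing animals. Survival in the compound arm is compared with a vehicle-dosed control arm and expressed as their quotient.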

[1] = dose: 100.0 mg/kg/injection, schedule: Q01DX009 (ip), vehicle: Klucel (hydroxypropylcellulose) (HPC)
[2] = dose: 200.0 mg/kg/injection, schedule: Q01DX009 (ip), vehicle: Klucel (hydroxypropylcellulose) (HPC)
[3] = dose: 400.0 mg/kg/injection, schedule: Q01DX009 (ip), vehicle: Klucel (hydroxypropylcellulose) (HPC)
[4] = dose: 100.0 mg/kg/injection, schedule: Q04DX003 (ip), vehicle: Klucel (hydroxypropylcellulose) (HPC)
[5] = dose: 200.0 mg/kg/injection, schedule: Q04DX003 (ip), vehicle: Klucel (hydroxypropylcellulose) (HPC)
[6] = dose: 400.0 mg/kg/injection, schedule: Q04DX003 (ip), vehicle: Klucel (hydroxypropylcellulose) (HPC)
[7] = dose: 100.0 mg/kg/injection, schedule: Q01DX009 (ip), vehicle: saline sonified
[8] = dose: 100.0 mg/kg/injection, schedule: Q04DX003 (ip), vehicle: saline

In the case of Cc1ccc(C(C)(O)CC(O)(C(F)(F)F)C(F)(F)F)cc1 (stereo unspecified), the T/C (dose: 100.0 mg/kg/injection, schedule: Q01DX001 (ip), vehicle: Klucel (hydroxypropylcellulose) (HPC)) is reported as 104 % of control, the T/C [1] is reported as 99 % of control and the T/C (dose: 200.0 mg/kg/injection, schedule: Q01DX001 (ip), vehicle: Klucel (hydroxypropylcellulose) (HPC)) is reported as 106 % of control. The T/C [2] was 99 % of control, the T/C (dose: 400.0 mg/kg/injection, schedule: Q01DX001 (ip), vehicle: Klucel (hydroxypropylcellulose) (HPC)) was 96 % of control and the T/C [3] was 98 % of control.

With NC(=S)N/N=C/c1cc(Br)ccc1O the T/C (dose: 100.0 mg/kg/injection, schedule: Q01DX001 (ip), vehicle: carboxymethylcellulose (CMC)) was 100 % of control, the T/C (dose: 200.0 mg/kg/injection, schedule: Q01DX001 (ip), vehicle: carboxymethylcellulose (CMC)) was 100 % of control and the T/C (dose: 400.0 mg/kg/injection, schedule: Q01DX001 (ip), vehicle: carboxymethylcellulose (CMC)) was 105 % of control.

In the case of CC1(C)OCC(C2OC(N)C3OC(C)(C)OC32)O1 (stereo unspecified), the T/C (dose: 100.0 mg/kg/injection, schedule: Q04DX002 (ip), vehicle: saline) is reported as 97 % of control, the T/C (dose: 200.0 mg/kg/injection, schedule: Q04DX002 (ip), vehicle: saline) is reported as 113 % of control and the T/C (dose: 400.0 mg/kg/injection, schedule: Q04DX002 (ip), vehicle: saline) is reported as 103 % of control.

In the case of CC1(C)C2CC3C(C(=O)O)CCCC3(C2)C1Br (stereo unspecified), the T/C [1] is reported as 103 % of control, the T/C [4] is reported as 87 % of control and the T/C [2] is reported as 106 % of control. The T/C [5] was 90 % of control, the T/C [3] was 97 % of control and the T/C [6] was 89 % of control.

With CN(C)c1ccc(C(C#N)(c2ccc(N(C)C)cc2)c2ccc(N(C)C)cc2)cc1 the T/C [1] was 95 % of control, the T/C [4] was 103 % of control and the T/C [2] was 97 % of control. For the same compound, the T/C [5] was 106 % of control and the T/C [6] was 90 % of control.

With ClCCCCCCCCCCc1ccccc1 the T/C [7] was 91 % of control, the T/C (dose: 100.0 mg/kg/injection, schedule: Q04DX003 (ip), vehicle: saline sonified) was 96 % of control and the T/C (dose: 200.0 mg/kg/injection, schedule: Q01DX009 (ip), vehicle: saline sonified) was 93 % of control. For the same compound, the T/C (dose: 200.0 mg/kg/injection, schedule: Q04DX003 (ip), vehicle: saline sonified) was 102 % of control, the T/C (dose: 400.0 mg/kg/injection, schedule: Q01DX009 (ip), vehicle: saline sonified) was 89 % of control and the T/C (dose: 400.0 mg/kg/injection, schedule: Q04DX003 (ip), vehicle: saline sonified) was 98 % of control.

Cn1nnnc1N/N=C(\Br)c1ccccc1 was tested, and the T/C (dose: 100.0 mg/kg/injection, schedule: Q01DX009 (ip), vehicle: saline with Tween-80) was 96 % of control, the T/C (dose: 100.0 mg/kg/injection, schedule: Q04DX003 (ip), vehicle: saline with Tween-80) was 104 % of control and the T/C (dose: 200.0 mg/kg/injection, schedule: Q01DX009 (ip), vehicle: saline with Tween-80) was 93 % of control. The T/C (dose: 200.0 mg/kg/injection, schedule: Q04DX003 (ip), vehicle: saline with Tween-80) was 104 % of control, the T/C (dose: 400.0 mg/kg/injection, schedule: Q01DX009 (ip), vehicle: saline with Tween-80) was 95 % of control and the T/C (dose: 400.0 mg/kg/injection, schedule: Q04DX003 (ip), vehicle: saline with Tween-80) was 100 % of control.

In the case of Cc1c(N)ccc2ccccc12, the T/C (dose: 25.0 mg/kg/injection, schedule: Q04DX003 (ip), vehicle: Klucel (hydroxypropylcellulose) (HPC)) is reported as 94 % of control, the T/C (dose: 50.0 mg/kg/injection, schedule: Q04DX003 (ip), vehicle: Klucel (hydroxypropylcellulose) (HPC)) is reported as 91 % of control and the T/C (dose: 100.0 mg/kg/injection, schedule: Q01DX001 (ip), vehicle: other) is reported as 103 % of control. For the same compound, the T/C [4] was 91 % of control, the T/C (dose: 200.0 mg/kg/injection, schedule: Q01DX001 (ip), vehicle: other) was 99 % of control and the T/C (dose: 400.0 mg/kg/injection, schedule: Q01DX001 (ip), vehicle: other) was 97 % of control.

For CCCCCOC(CN)C(Cl)(Cl)Cl (stereo unspecified), the T/C (dose: 25.0 mg/kg/injection, schedule: Q01DX009 (ip), vehicle: saline) was 93 % of control, the T/C (dose: 50.0 mg/kg/injection, schedule: Q01DX009 (ip), vehicle: saline) was 97 % of control and the T/C [8] was 91 % of control.

With O=C(O)c1cc(Br)c2ccccc2c1O the T/C (dose: 25.0 mg/kg/injection, schedule: Q01DX009 (ip), vehicle: saline sonified) was 103 % of control, the T/C (dose: 50.0 mg/kg/injection, schedule: Q01DX009 (ip), vehicle: saline sonified) was 108 % of control and the T/C [7] was 100 % of control. For the same compound, the T/C [4] was 104 % of control.

O=C1NC(=O)C2C3CCC(O3)C12 (stereo unspecified) was tested, and the T/C (dose: 25.0 mg/kg/injection, schedule: Q04DX002 (ip), vehicle: Klucel (hydroxypropylcellulose) (HPC)) was 92 % of control and 98 % of control, the T/C (dose: 50.0 mg/kg/injection, schedule: Q04DX002 (ip), vehicle: Klucel (hydroxypropylcellulose) (HPC)) was 96 % of control and 102 % of control and the T/C (dose: 55.0 mg/kg/injection, schedule: Q01DX Z (ip), vehicle: methylcellulose (MC)) was 98 % of control. The T/C (dose: 83.0 mg/kg/injection, schedule: Q01DX Z (ip), vehicle: methylcellulose (MC)) was 105 % of control, the T/C (dose: 100.0 mg/kg/injection, schedule: Q04DX002 (ip), vehicle: Klucel (hydroxypropylcellulose) (HPC)) was 103 % of control and 98 % of control and 86 % of control and the T/C (dose: 125.0 mg/kg/injection, schedule: Q01DX Z (ip), vehicle: methylcellulose (MC)) was 94 % of control. The T/C (dose: 200.0 mg/kg/injection, schedule: Q04DX002 (ip), vehicle: Klucel (hydroxypropylcellulose) (HPC)) was 106 % of control.

With NC(N)=N/N=C\c1ccc(C2CCNCC2)cc1 the T/C (dose: 15.0 mg/kg/injection, schedule: Q01DX Z (ip), vehicle: methylcellulose (MC)) was 107 % of control, the T/C (dose: 15.0 mg/kg/injection, schedule: Q01DX Z (oral), vehicle: methylcellulose (MC)) was 110 % of control and the T/C (dose: 30.0 mg/kg/injection, schedule: Q01DX Z (ip), vehicle: methylcellulose (MC)) was 108 % of control. For the same compound, the T/C (dose: 30.0 mg/kg/injection, schedule: Q01DX Z (oral), vehicle: methylcellulose (MC)) was 100 % of control and the T/C (dose: 60.0 mg/kg/injection, schedule: Q01DX Z (oral), vehicle: methylcellulose (MC)) was 104 % of control.

In the case of Cc1ccc(Cl)cc1NC(=O)NCCCl, the T/C [4] is reported as 113 % of control and the T/C [5] is reported as 93 % of control.

In the case of COc1[nH]c(=O)[nH]c(=O)c1OP(=O)(OC)OC, the T/C (dose: 50.0 mg/kg/injection, schedule: Q01DX001 (ip), vehicle: saline) is reported as 98 % of control, the T/C (dose: 100.0 mg/kg/injection, schedule: Q01DX001 (ip), vehicle: saline) is reported as 98 % of control and the T/C (dose: 200.0 mg/kg/injection, schedule: Q01DX001 (ip), vehicle: saline) is reported as 98 % of control. The T/C (dose: 400.0 mg/kg/injection, schedule: Q01DX001 (ip), vehicle: saline) was 89 % of control.

In the case of C(=C1\CC(c2ccccc2)(c2ccccc2)N=N1)/c1ccccc1, the T/C [4] is reported as 91 % of control, the T/C [5] is reported as 114 % of control and the T/C [6] is reported as 101 % of control.

In the case of CCCCCCCCCCCCCCCCn1cnc2c(=S)nc[nH]c21, the T/C (dose: 12.5 mg/kg/injection, schedule: Q01DX005 (ip), vehicle: other) is reported as 102 % of control, the T/C (dose: 25.0 mg/kg/injection, schedule: Q01DX005 (ip), vehicle: other) is reported as 96 % of control and the T/C (dose: 50.0 mg/kg/injection, schedule: Q01DX005 (ip), vehicle: other) is reported as 104 % of control. For the same compound, the T/C (dose: 100.0 mg/kg/injection, schedule: Q01DX005 (ip), vehicle: other) was 104 % of control and the T/C (dose: 200.0 mg/kg/injection, schedule: Q01DX005 (ip), vehicle: other) was 96 % of control.

For NN1CCCC1C(=O)O (stereo unspecified), the T/C (dose: 75.0 mg/kg/injection, schedule: Q01DX001 (ip), vehicle: saline) was 97 % of control and the T/C (dose: 150.0 mg/kg/injection, schedule: Q01DX001 (ip), vehicle: saline) was 92 % of control.

For CCN(CCC[N+](C)(C)C)C(=O)C(c1ccccc1)c1ccccc1, the T/C [8] was 93 % of control.

For Fc1cc(N(CCCl)CCCl)ccc1C=Nc1ccc(-n2ccnc2)cc1, the T/C (dose: 62.5 mg/kg/injection, schedule: Q04DX002 (ip), vehicle: Klucel (hydroxypropylcellulose) (HPC)) was 102 % of control, the T/C (dose: 125.0 mg/kg/injection, schedule: Q04DX002 (ip), vehicle: Klucel (hydroxypropylcellulose) (HPC)) was 106 % of control and the T/C (dose: 250.0 mg/kg/injection, schedule: Q04DX002 (ip), vehicle: Klucel (hydroxypropylcellulose) (HPC)) was 106 % of control.

For CN=C(N)c1ccc(NC(=O)/C=C\c2ccc(C(=O)Nc3ccc(C(N)=NC)cc3)cc2)cc1, the T/C (dose: 1.88 mg/kg/injection, schedule: Q01DX Z (ip), vehicle: saline) was 112 % of control, the T/C (dose: 3.75 mg/kg/injection, schedule: Q01DX Z (ip), vehicle: saline) was 119 % of control and the T/C (dose: 7.5 mg/kg/injection, schedule: Q01DX Z (ip), vehicle: saline) was 122 % of control. For the same compound, the T/C (dose: 60.0 mg/kg/injection, schedule: Q01DX Z (ip), vehicle: saline) was 233 % of control, the T/C (dose: 120.0 mg/kg/injection, schedule: Q01DX Z (ip), vehicle: saline) was 206 % of control and the T/C (dose: 480.0 mg/kg/injection, schedule: Q01DX Z (ip), vehicle: saline) was 96 % of control.

— PubChem BioAssay AID248 (DTP/NCI, 2004)
